15 compounds from patent publication US11365174B2 (priority 2016, dated 2022) can be followed below.

The structures appear in SMILES notation. “Also recorded” adds a separate entry of the source. Read-outs that look alike come from different tables or passages of the source.

The subject of this assay is Influenza A virus strain A/Puerto Rico/8/1934 H1N1 (PR8; amantadine-resistant). It is filed as cell-based. The settings on record: for potency of antiviral activity for the PR8 strain compared to amantadine or to other compounds of the class: comparison within figure; for antiviral activity for the PR8 strain (NA activity as read-out for viral protein synthesis/replication): L929 cells, 18-20 hours, fluorescence normalized to DMSO; for antiviral activity for the PR8 strain (NA activity as read-out for viral protein synthesis/replication) / selective activity against PR8 strain in first screen of docking hits: half-log dilutions; for selective activity against PR8 strain in first screen of docking hits: 1-10 uM, alongside DMSO and amantadine, normalized to DMSO.

Regarding `COc1ccccc1CNS(=O)(=O)c1c(C)cc([N+](=O)[O-])cc1C` [JDB-0120], the “potency of antiviral activity for the PR8 strain compared to amantadine or to other compounds of the class” value is “the most potent inhibitors of NA activity and PR8 virus replication; also recorded: the greatest activity for small molecules; also recorded: the greatest biological activity in the sulfonamide series”.

Consider `Cc1cc([N+](=O)[O-])cc(C)c1S(=O)(=O)NCc1ccccc1Cl` [JDB-0121], for which the “potency of antiviral activity for the PR8 strain compared to amantadine or to other compounds of the class” value is “the most potent inhibitors of NA activity and PR8 virus replication; also recorded: the greatest activity for small molecules; also recorded: the greatest biological activity in the sulfonamide series”.

Consider `NC12CC3CC(CC(C3)C1)C2` [amantadine, reference compound], for which the “antiviral activity for the PR8 strain (NA activity as read-out for viral protein synthesis/replication)” value was “moderately inhibited PR8 replication at high enough concentrations”. The “antiviral activity for the PR8 strain (NA activity as read-out for viral protein synthesis/replication)” value (listed as Amantadine) was “moderately inhibit the replication of the PR8 strain”.

With `COc1ccc(C2OCC3(CO)C(C)C=C(C)C2C3C)cc1` (stereo not drawn) [analog 2, [8-(4-methoxyphenyl)-2,4,9-trimethyl-7-oxabicyclo[3.3.1]non-2-en-5-yl]methanol], the “antiviral activity for the PR8 strain (NA activity as read-out for viral protein synthesis/replication)” value is reported as “antiviral activity for the PR8 strain” and the “potency of antiviral activity for the PR8 strain compared to amantadine or to other compounds of the class” value is listed as “more potent antiviral activity”.

Consider `CC1=CCC2CC1C(c1ccc(O)cc1)OC2(C)C` (stereo not drawn) [analog 4, 4-(2,2,6-trimethyl-3-oxabicyclo[3.3.1]non-6-en-4-yl)phenol], for which the “antiviral activity for the PR8 strain (NA activity as read-out for viral protein synthesis/replication)” value was “antiviral activity for the PR8 strain” and the “potency of antiviral activity for the PR8 strain compared to amantadine or to other compounds of the class” value was “the most potent; also recorded: more potent antiviral activity”.

As to `COc1cc(C2OCC3(CO)C(C)C=C(C)C2C3C)ccc1O` (stereo not drawn) [analog 5, 4-[5-(hydroxymethyl)-2,4,9-trimethyl-7-oxabicyclo[3.3.1]non-2-en-8-yl]-2-methoxyphenol], the “antiviral activity for the PR8 strain (NA activity as read-out for viral protein synthesis/replication)” value is listed as “antiviral activity for the PR8 strain” and the “potency of antiviral activity for the PR8 strain compared to amantadine or to other compounds of the class” value was “more potent antiviral activity”.

Consider `Cc1cccc(CNS(=O)(=O)c2c(C)cc(C)cc2C)c1` [analog 7, 2,4,6-trimethyl-N-[(3-methylphenyl)methyl]benzenesulfonamide], for which the “antiviral activity for the PR8 strain (NA activity as read-out for viral protein synthesis/replication)” value was “potent inhibitors of NA activity and PR8 virus replication; also recorded: antiviral activity for the PR8 strain”; the “potency of antiviral activity for the PR8 strain compared to amantadine or to other compounds of the class” value is given as “more potent antiviral activity; also recorded: more potent than amantadine”.

With `Cc1cc(C)c(S(=O)(=O)NCc2ccccc2Cl)c(C)c1` [analog 11, N-[(2-chlorophenyl)methyl]-2,4,6 trimethylbenzenesulfonamide], the “antiviral activity for the PR8 strain (NA activity as read-out for viral protein synthesis/replication)” value was “potent inhibitors of NA activity and PR8 virus replication; also recorded: antiviral activity for the PR8 strain”; the “potency of antiviral activity for the PR8 strain compared to amantadine or to other compounds of the class” value is “the most potent”.

For `CC12CC3CC(C)(C1)CC(C(=O)Nc1ccc([N+](=O)[O-])cc1)(C3)C2` [analog 18, 3,5-dimethyl-N-(4-nitrophenyl)adamantane-1-carboxamide], the “antiviral activity for the PR8 strain (NA activity as read-out for viral protein synthesis/replication)” value is listed as “antiviral activity for the PR8 strain” and the “potency of antiviral activity for the PR8 strain compared to amantadine or to other compounds of the class” value was “the most potent”.

`Cc1cc([N+](=O)[O-])ccc1NC(=O)CC12CC3CC(CC(C3)C1)C2` [analog 21, 2-(1-adamantyl)-N-(2-methyl-4-nitrophenyl)acetamide]: the “antiviral activity for the PR8 strain (NA activity as read-out for viral protein synthesis/replication)” value is on record as “antiviral activity for the PR8 strain”.

For the compound `O=[N+]([O-])c1ccc(C23CC4CC(CC(C4)C2)C3)cc1` [analog 23, 1-(4-nitrophenyl)adamantane], the “antiviral activity for the PR8 strain (NA activity as read-out for viral protein synthesis/replication)” value is given as “antiviral activity for the PR8 strain”.

With `COc1ccccc1CNS(=O)(=O)c1c(C)cc(C)cc1C` [analog 31, N-[(2-methoxyphenyl)methyl]-2,4,6 trimethylbenzenesulfonamide], the “antiviral activity for the PR8 strain (NA activity as read-out for viral protein synthesis/replication)” value is “potent inhibitors of NA activity and PR8 virus replication; also recorded: antiviral activity for the PR8 strain”; the “potency of antiviral activity for the PR8 strain compared to amantadine or to other compounds of the class” value was “the greatest activity”.

In the case of `Cc1cc(C)c(S(=O)(=O)NCc2ccccc2)c(C)c1` [compound 3, N-benzyl-2,4,6-trimethylbenzenesulfonamide], the “antiviral activity for the PR8 strain (NA activity as read-out for viral protein synthesis/replication)” value was “antiviral activity for the PR8 strain”, the “potency of antiviral activity for the PR8 strain compared to amantadine or to other compounds of the class” value is “more potent than amantadine” and the “selective activity against PR8 strain in first screen of docking hits” value (from here on “selective activity”) is listed as “selective activity against PR8 strain”.

Turning to `O=C(CC12CC3CC(CC(C3)C1)C2)Nc1ccc([N+](=O)[O-])cc1` [compound 16, 2-(1-adamantyl)-N-(4-nitrophenyl)acetamide], the “antiviral activity for the PR8 strain (NA activity as read-out for viral protein synthesis/replication)” value was “antiviral activity for the PR8 strain” and the “selective activity” value is on record as “selective activity against PR8 strain”.

For the compound `O=[N+]([O-])c1ccc(C23CC4CC(CC(O)(C4)C2)C3)cc1` [compound 19, 3-(4-nitrophenyl)adamantan-1-ol], the “antiviral activity for the PR8 strain (NA activity as read-out for viral protein synthesis/replication)” value is recorded as “antiviral activity for the PR8 strain” and the “selective activity” value is reported as “selective activity against PR8 strain”.
